{"source": "paper PMC5707067", "about": "“Farnesyl phenolic enantiomers as natural MTH1 inhibitors from Ganoderma sinense” (Oncotarget, 2017)", "key": {"[1]": {"system": "human colorectal carcinoma cells (SW620)", "test": "CCK8 cytotoxicity assay, SW620", "format": "cell-based", "conditions": "Homo sapiens, SW-620; CCK8, 48 h, carcinoma cell line", "source_text": "(§1) The growth inhibitory effects of the isolated farnesyl phenolic compounds (1–8) against carcinoma cell lines [human osteosarcoma cells (U2OS), human colorectal carcinoma cells (SW620), human ES-2 ovarian carcinoma cells (ES-2)] and normal tissue cell lines [human hepatic cells (Lo2), African green monkey kidney vero cells (Vero)] were further investigated using CCK8 assay method (Table 3).\n(§2) Carcinoma cell lines [human osteosarcoma cells (U2OS), human colorectal carcinoma cells (SW620), human ES-2 ovarian carcinoma cells (ES-2)] and normal tissue cell lines [human hepatic cells (Lo2), African green monkey kidney Vero cells (Vero)] The U2OS, SW620, ES-2, Lo2 and Vero were obtained from ATCC (Manassas, VA, USA). The SW620 and Vero cells were cultured in Roswell Park Memorial Institute medium (RPMI), with 10% fetal bovine serum (Hyclone) and 1% penicillin-streptomycin (Sigma). Lo2, U2OS and ES-2 cells were grown in Dulbecco's modified eagle medium (DMEM), with 10% fetal bovine serum (Hyclone) and 1% penicillin-streptomycin (Sigma). All of these cells were cultured at 37°C in a humidified atmosphere with 5% CO2. For CCK8 assay cytotoxicity evaluation of compounds, all cells were separately plated at a density of 1 × 10^4 cells/well in a 96 well plate. Cells were cultivated at 37°C in 5% CO2 atmosphere for 24 h, then medium in the wells was replaced with fresh medium containing compounds which were diluted in 8 dilution steps covering the range from 200 μM to 1.5625 μM. And DMSO was used as negative control. After 48 h incubation, 10 μL of CCK8 solution was added to each well. After 30 min, the optical density (OD) of each well was measured at wavelength of 450 nm on spectrophotometer. Data were corrected for background (no-cell control) and expressed as a percentage of the value for untreated cells. The IC50 values of the isolated compounds were derived from the mean OD values of the triplicate tests versus the drug concentration curves."}, "[2]": {"system": "human ES-2 ovarian carcinoma cells (ES-2)", "test": "CCK8 cytotoxicity assay, ES-2", "format": "cell-based", "conditions": "Homo sapiens, Ovarian carcinoma cell; CCK8, 48 h, carcinoma cell line", "source_text": "as §1, §2"}, "[3]": {"test": "CCK8 cytotoxicity assay, Lo2", "format": "cell-based, human", "conditions": "human, Lo2 human hepatic cells (normal tissue cell line), CCK8, 48 h", "source_text": "as §1, §2"}, "[4]": {"test": "CCK8 cytotoxicity assay, Vero", "format": "cell-based, African green monkey", "conditions": "African green monkey, Vero kidney cells (normal tissue cell line), CCK8, 48 h", "source_text": "as §1, §2"}, "[5]": {"system": "SW620 cells (53BP1 foci)", "test": "53BP1 foci immunofluorescence", "format": "cell-based, human", "conditions": "50 μM, 24 h vs control, P<0.01", "experimental": "Meanwhile, MTH1 could prevent the mispairing of bases during replication and transversion mutations. Presumably, its inhibitors could cause DNA damage. P53 binding protein 1 (p53-binding, protein 1, 53BP1) is an important regulatory factor in response to double strand breaks.\nCells which adhered to glass coverslips were treated with DMSO or compounds (50 μM) for 24 h. Then cells were washed with PBS and then fixed with 3% paraformaldehyde in PBS for 20 min […]. Fixed cells were rinsed with PBS and incubated with penetrating agent (0.5% Triton-X-100) in PBS for 5 min. Next, cells were stained with an anti-53BP1 monoclonal antibody (abcam, diluted 1:250). Then the coverslips were rinsed with PBS at least 3 times andincubated with an Alexa Fluor 568 goat anti-rabbit IgG secondary antibody. After PBS rinsing, coverslips were stained with DAPI (sigma). Then the morphology was observed by confocal microscopy (Zeiss, OBSERVER D1/AX10 cam HRC)."}, "[6]": {"system": "MTH1 siRNA transfected SW620 cells", "test": "CCK8 growth assay in MTH1 siRNA transfected cells", "format": "cell-based, human", "experimental": "In order to study whether the cytotoxicity of the farnesyl phenolic compounds was due to the inhibition of MTH1, the expression of endogenous MTH1 was knocked down in cancer cells. SW620 cell lines were transfected with MTH1 siRNA (#1, #2 and #3), [2] while the control was transfected with non-targeting siRNA (NT). The expression levels of MTH1 were measured by Western blot assay (Figure 6A and 6B), both siRNA #2 and #3 knocked down expressions of MTH1 in SW620 cells. The effects of compound 1 on the growth of MTH1 siRNA (#2 and #3) and non-targeting siRNA transfected cells were assessed by CCK8 assay.\nFigure 6 The specific binding of compound 1 to the MTH1 protein leads to cell growth inhibition (A, B) Western blot analysis and optical density analysis for the expression of MTH1 for the siRNA transfected cells. MTH1 siRNA #2 and #3 were both knocked down in SW620 cells compared with the non-target siRNA (NT). (C) The effects of compound 1 on the growth of MTH1 siRNA (#2 and #3) and non-targeting siRNA transfected cells were assessed by CCK8 assay. […] (D) The effects of compounds 1 on normal tissue cell lines [human hepatic cells (Lo2), African green monkey kidney vero cells (Vero)]. (E, F) Cellular thermal shift assay (CETSA) confirmed the binding capacity of compound 1 with MTH1 at the cellular level. […]"}, "[7]": {"molecular_target": "MTH1 (Homo sapiens, UniProt P36639)", "test": "Enzyme inhibition assay (8-oxo-dGTP hydrolysis, HPLC)", "format": "biochemical", "design": "hexa-histidine (His6) (N, cleaved yes); made in house; host or cells: E. coli BL21 Star", "conditions": "8-oxo-dGTP 25 μM, purified MTH1", "experimental": "Microscale thermophoresis method (MST) was employed to assay the binding affinity between the compounds and MTH1. This technology can quantify protein-protein interactions or protein-small molecule interactions with high sensitivity through detecting fluorescent changes of molecules during thermophoresis.\nTo identify the efficacy of the eight compounds, an enzyme inhibition assay was carried out. […] Then the reaction was stop by the addition of 20 μL ice-cold Na2EDTA (50 mM). The reaction mixture was centrifugated at 15000 rpm at 4°C for 10 min. 20 μL of supernatant was injected on an HPLC column (Ultimate AQ-C18 RP-18e, 250 mm × 4.6 mm × 5 μm), and eluted isolate with 100 mM Na2HPO4-NaOH (pH 5.5)/MeOH 95:5 with flow rate 1 mL/min at column room of 30°C. […] Measurements were done in triplet, and IC50 values were calculated to compare the efficiency of various compounds."}}, "data": [{"compound": "CO[C@]1(c2cc(O)cc(O)c2)C=C(CCCC(CO)CC/C=C(\\C)COC(=O)/C=C/c2ccc(O)cc2)C(=O)O1", "note": "(stereo partly drawn) [Compound 1, (5R)-3-{9-[(E)-coumaroyl]-4-hydroxymethyl-8-methyl-7-nonene}-5-(3,5-dihydroxyphenyl)-5-methoxy-2(5H)-furanone]", "values": [{"measurement": "IC50", "setting": "[1]", "result": "45 ± 1.23", "unit": "µM"}, {"measurement": "IC50", "setting": "[2]", "result": "55.5 ± 1.08", "unit": "µM"}, {"measurement": "IC50 at 48 h", "setting": "[3]", "result": "150.3 ± 1.09", "unit": "µM"}, {"measurement": "IC50 at 48 h", "setting": "[4]", "result": "> 300", "unit": "µM"}, {"measurement": "53BP1 foci formation", "setting": "[5]", "result": "significantly aggregated"}, {"measurement": "growth inhibition of MTH1 siRNA (#2 and #3) vs non-targeting siRNA transfected cells", "setting": "[6]", "result": "resistant to the growth inhibition"}, {"measurement": "IC50", "setting": "[7]", "result": "10.9 ± 1.04", "unit": "µM"}]}]}
